Test results: patent US20030138390A1, “Use of alcohol dehydrogenase inhibitors for cosmetic treatment of keratinous materials” (priority 2000, published 2003)

Target: T1, enzyme alcohol dehydrogenase (Saccharomyces cerevisiae, UniProt P00330)
T1 construct: purchased Sigma Diagnostics 333-B
T1 sequence (P00330 1-348): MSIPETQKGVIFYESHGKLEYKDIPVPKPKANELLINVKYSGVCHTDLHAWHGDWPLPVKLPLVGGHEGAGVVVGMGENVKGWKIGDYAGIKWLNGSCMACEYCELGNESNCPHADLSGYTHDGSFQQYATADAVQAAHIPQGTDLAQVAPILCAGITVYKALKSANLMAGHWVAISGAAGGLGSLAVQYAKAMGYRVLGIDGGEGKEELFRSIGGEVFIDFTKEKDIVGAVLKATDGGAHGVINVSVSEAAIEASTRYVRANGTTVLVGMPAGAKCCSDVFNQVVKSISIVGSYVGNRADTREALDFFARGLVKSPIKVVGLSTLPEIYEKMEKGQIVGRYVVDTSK
Assay: Test of inhibition of the activity of the enzyme alcohol dehydrogenase (Sigma Diagnostics kit ref. 333-B)
Assay type: biochemical
Conditions: inhibitor 10^-3 M in the final mixture; 10 μl ethanol solution 0.08% w/v; incubated 10 minutes at room temperature; reference = 100
Procedure: Test of Inhibition of the Activity of the Enzyme Alcohol Dehydrogenase
The inhibition of the activity of the enzyme alcohol dehydrogenase was determined using a Sigma Diagnostics kit (ref. 333-B).
3 ml of the Alcohol Reagent, 10 μl of ethanol solution (0.08% ethanol w/v ref. 330-20) and 10 μl of inhibitor solution in distilled water are incubated for 10 minutes at room temperature.
For each assay, a blank consisting of 3 ml of the Alcohol Reagent, 10 μl of distilled water and 10 μl of inhibitor solution in distilled water is prepared.
The inhibitors are diluted so as to be at a concentration of 10^−3 M in the final mixture.
After incubation of the mixture, 100 μl are taken up and read over a 10-minute interval at 340 nm. The readings are performed in 96-well UV microplates using a UV-visible multiwell spectrophotometer (Spectramax Plus—Molecular Devices) against the blank.
The inhibition results are expressed as a percentage of absorbance at 340 nm relative to a reference (no inhibitor in the mixture): […]

## c1c[nH]cn1 [Imidazole]
  percentage of absorbance at 340 nm relative to a reference (no inhibitor in the mixture): 32%

## c1cn[nH]c1 [Pyrazole]
  percentage of absorbance at 340 nm relative to a reference (no inhibitor in the mixture): 16%

## Cc1cn[nH]c1 [4-Methylpyrazole]
  percentage of absorbance at 340 nm relative to a reference (no inhibitor in the mixture): 35%

## CCn1nc(C)c(N)c1N [2-Ethyl-5-methyl-2H-3,4-diaminopyracole]
  percentage of absorbance at 340 nm relative to a reference (no inhibitor in the mixture): 31%

## OCC(Cl)(Cl)Cl [2,2,2-Trichloroethanol]
  percentage of absorbance at 340 nm relative to a reference (no inhibitor in the mixture): -12%
